Target: D-xylose isomerase (Streptomyces pseudogriseolus, UniProt P24300)
Test: competitive inhibition of D-xylose isomerization
Assay type: biochemical

D-xylose isomerase, sequence (P24300 2-388): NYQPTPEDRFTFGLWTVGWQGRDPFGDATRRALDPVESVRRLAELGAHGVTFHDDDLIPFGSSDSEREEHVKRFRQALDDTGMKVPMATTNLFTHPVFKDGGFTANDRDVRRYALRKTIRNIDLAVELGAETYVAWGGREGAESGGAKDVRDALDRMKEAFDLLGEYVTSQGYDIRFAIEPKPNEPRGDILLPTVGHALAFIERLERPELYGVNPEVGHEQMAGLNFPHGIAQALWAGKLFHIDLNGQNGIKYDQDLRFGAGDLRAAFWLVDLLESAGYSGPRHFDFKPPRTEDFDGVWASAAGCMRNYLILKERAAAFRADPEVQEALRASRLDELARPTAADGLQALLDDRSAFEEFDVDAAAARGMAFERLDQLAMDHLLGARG

Question: How did the Ki turn out when `O=C[C@H](O)CO` [DGA, D-glyceraldehyde] was run?
Answer: 3 mM

From PMC3217161 (2011)
